# US6441133B1, “Thyrotropin-releasing hormone receptor 2(TRHR-2)” (AstraZeneca Canada Inc., priority 1996, dated 2002)
# Where two headings read alike, the source gives them in different places. Where a SMILES comes first, the peptide text is derived from it. Where no end group is shown, it is not given here. [ ]: non-standard residue; d: D form. pGlu = O=C1CC[C@@H](C(=O)O)N1
# T1: TRHR-2 (Rattus norvegicus, UniProt A6IZR3)
# T1 construct: expressed in transfected cells; host or cells: HEK293s
# T1 sequence (A6IZR3 1-352): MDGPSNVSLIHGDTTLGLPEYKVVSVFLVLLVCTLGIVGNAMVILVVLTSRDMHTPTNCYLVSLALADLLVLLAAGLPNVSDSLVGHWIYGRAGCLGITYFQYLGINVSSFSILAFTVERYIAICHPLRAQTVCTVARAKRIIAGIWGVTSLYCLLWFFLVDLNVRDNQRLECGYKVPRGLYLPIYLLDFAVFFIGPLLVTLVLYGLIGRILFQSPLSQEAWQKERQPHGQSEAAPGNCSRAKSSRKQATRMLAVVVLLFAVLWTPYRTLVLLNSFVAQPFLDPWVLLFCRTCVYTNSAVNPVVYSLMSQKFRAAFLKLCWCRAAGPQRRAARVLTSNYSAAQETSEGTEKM
# T2: TRH receptor (TRHR-1) of GH4C1 cells (Rattus norvegicus, UniProt Q01717)
# T2 construct: endogenous in cells; host or cells: GH4C1
# T2 sequence (Q01717 1-412): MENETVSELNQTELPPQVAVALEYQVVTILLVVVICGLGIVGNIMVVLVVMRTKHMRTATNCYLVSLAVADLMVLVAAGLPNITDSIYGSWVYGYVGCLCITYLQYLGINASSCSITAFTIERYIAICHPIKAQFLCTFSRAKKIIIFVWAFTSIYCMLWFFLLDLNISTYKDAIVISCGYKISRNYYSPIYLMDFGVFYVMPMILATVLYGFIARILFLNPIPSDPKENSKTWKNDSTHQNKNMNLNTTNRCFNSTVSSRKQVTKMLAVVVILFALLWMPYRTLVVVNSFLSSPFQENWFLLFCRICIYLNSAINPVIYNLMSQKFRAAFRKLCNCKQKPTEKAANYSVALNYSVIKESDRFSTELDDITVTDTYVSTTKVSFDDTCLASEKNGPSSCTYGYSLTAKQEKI
# T3: Thyrotropin-releasing hormone receptor 2 (TRHR-2), rat, expressed in HEK293s cells from pCDNA3-TRHR2 (rat)
# T3 construct: 352 amino acid open reading frame cloned from a rat brain stem-spinal cord cDNA library; also called TRH receptor 2; 293S/TRH-R clonal cell line
# T3 chain: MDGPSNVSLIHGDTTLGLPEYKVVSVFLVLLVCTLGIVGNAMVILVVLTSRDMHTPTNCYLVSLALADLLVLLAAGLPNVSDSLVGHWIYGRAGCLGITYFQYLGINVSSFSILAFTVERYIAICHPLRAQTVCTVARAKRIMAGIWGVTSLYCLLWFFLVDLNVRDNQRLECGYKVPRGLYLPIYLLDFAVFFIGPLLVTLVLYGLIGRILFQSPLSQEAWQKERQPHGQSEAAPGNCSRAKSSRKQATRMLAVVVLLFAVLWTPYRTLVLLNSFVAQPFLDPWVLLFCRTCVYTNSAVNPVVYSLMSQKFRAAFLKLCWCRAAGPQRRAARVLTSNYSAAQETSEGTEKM
# Legend:
# [1] = biological target: TRH receptor of GH4C1 cells (TRHR-1) (UniProt Q01717); test: radioligand binding on whole GH4C1 cells
# [2] = biological target: Thyrotropin-releasing hormone receptor 2 (TRHR-2), rat, expressed in HEK293s cells from pCDNA3-TRHR2 (rat); test: radioligand binding on whole cells, 293S/TRH-R clonal cell line
# [3] = biological target: Thyrotropin-releasing hormone receptor 2 (TRHR-2), rat, expressed in HEK293s cells from pCDNA3-TRHR2 (rat); test: saturation radioligand binding on whole HEK 293 cells expressing TRHR-2
# TRHR-2 [4] = biological target: T1, TRHR-2; test: 3H-TRH radioligand binding on whole HEK293s cells stably expressing TRHR-2
# Procedure: (§1) The TRH binding assay was performed on whole cells. Transfected cells were washed twice with HBSS (Gibco BRL, cat# 14065) supplemented with 0.05% bovine serum albumin, detached by gentle pipetting and aliquoted in eppendorf tubes for binding assays. One twentieth of the cells collected from a confluent 75 cm^2 flask was used per assay point. The binding reaction was performed in a total volume of […] of binding buffer (HBSS+0.05% bovine serum albumin) containing the transfected cells and 10 nM of^3H-thyrotropin releasing hormone (Peninsula Laboratories Inc, cat # 7501) with or without unlabelled competitors. Non-specific binding was estimated in the presence of 1 mM of unlabelled TRH. Reactions were carried out for 60 min at room temperature and reactions were stopped by filtration through Unifilters-96 GF/B filters (Canberra Packard cat # 6005177) using the 96-well Filtermat 196 filtration system from Canberra Packard. The filters were washed 3 times with 1 ml of washing buffer (50 mM Tris(HCl), 3 mM MgCl2, pH 7.0). They were then dried at 55° C. for one hour and 50 μl of mScint-20 (Canberra Packard) was added per well. Filters were counted with the Topcount microplate counter from Canberra Packard.
# HEK293s cells in a 10 cm petri dish were transfected with […] pCDNA3-TRHR2. After 14 days of selection in culture medium containing 600 μg/ml G418, resistant colonies were pooled. Then, single clones were purified by 2 rounds of limited dilution in 96 well plates. Clones of HEK293s cells expressing different levels of TRHR-2 receptor were selected using a 3H-TRH binding assay.
# TRHR-2 [5] = biological target: T1, TRHR-2; test: Intracellular calcium mobilization (Fura 2) in HEK293/TRHR-2 cells; assay type: cell-based
# Procedure: Intracellular calcium concentration changes where determined by fluorescence measurement of the intracellular, calcium-sensitive indicator Fura 2. Briefly, HEK293s cells were grown on glass cover slips in culture medium at 37° C., 5% CO2 and diluted 10 fold every 3 days. The cells were loaded at room temperature for 30 min using […] of is Fura 2/AM in simplified Grace's solution (SGS buffer) physiological buffer (NBS: 135 mM NaCl, 5 mM KCl, 1.8 mM CaCl2, 1.2 mM MgSO4, 10 mM HEPES, pH 7.4). Fura 2/AM is a membrane permeant, calcium-insensitive ester of Fura 2. After three washes in Fura-2 /AM-free buffer, the cells were incubated for 15 to 30 min in SGNBS at room temperature to insure full hydrolysis of the Fura 2 ester. The calcium-sensitive, hydrolyzed form of Fura 2 remains trapped intracellularly. Experiments were conducted at room temperature on single cells or small groups of 3 to 7 cells in a coverslip holder fitted to the stage of an IMT-2 inverted microscope equipped with a 40×-epifluorescence objective (UVFL40, 0.85, Olympus Optical Co, Tokyo) and coupled to a PTI ratio fluorescence system (Photon Technology International, London, Ontario, Canada). Sample illumination was provided by a 75 W xenon light source attached to a filter-based light chopper unit which provided 340 and 380 nm excitation wavelength alternating at a frequency of 5 Hz. The emitted light was passed through an adjustable rectangular aperture followed by a 505 nm interference filter (10-nm bandwidth), and its intensity was recorded by a photon counter detector. Dye leakage, as determined by loss of fluorescence over a period of 30 min, was undetectable at both excitation wavelengths.
# The ratio of the fluorescence intensity at the two excitation wavelengths can be converted into an estimate of ionized intracellular calcium concentration by use of the formula: [Ca^2+]i=Kd×(Fmin/Fmax)×(R-Rmin)/(Rmax-R), where R, Rmin, and Rmax are the fluorescence ratios recorded during the experiment (R) and during calibration tests on unlysed cells using […] ionomycin in SGNBS (Rmax), followed by 10 mM EGTA addition at pH 8.2 (Rmin). Fmin and Fmax are the corresponding fluorescence intensities for the 380 nm excitation and Kd is the Fura-2 dissociation constant at room temperature (135 nM).
# Small volumes (10-50 μl) of drugs (hormones, agonists, neurotransmitters, TRH, bradykinin) from prediluted stock solutions prepared in the appropriate buffer solutions were directly added to the experimental chamber.
# [6] = I.C.V. injection, on a molar basis (Boschi et al. 1983); cited from earlier work
# [7] = biological target: T2, TRH receptor (TRHR-1) of GH4C1 cells; test: 3H-TRH radioligand binding on GH4C1 cells
# [8] = biological target: Thyrotropin-releasing hormone receptor 2 (TRHR-2), rat, expressed in HEK293s cells from pCDNA3-TRHR2 (rat); test: competition with 3H-TRH tracer on whole cells, 293S/TRH-R clonal cell line
# [9] = biological target: T3, Thyrotropin-releasing hormone receptor …; test: 3H-TRH competition on cells expressing TRHR-2 (assay not restated in the sentence)
# Procedure: as §1, with “cm²” for “cm^2”, “of ³H-thyrotropin” for “of^3H-thyrotropin”, “MgCl_2,” for “MgCl2,”, “µl” for “μl”
# (§2) A binding reaction was performed using HEK 293 cells expressing TRHR-2. […] Various TRH-related peptides were used in competition experiments.
# [10] = biological target: T3, Thyrotropin-releasing hormone receptor …; test: competition with 3H-TRH tracer on whole cells, 293S/TRH-R clonal cell line
# Procedure: as §1, with “cm²” for “cm^2”, “of ³H-thyrotropin” for “of^3H-thyrotropin”, “MgCl_2,” for “MgCl2,”, “µl” for “μl”
# as §2
# [11] = 293S/TRH-R clonal cell line, three independent experiments, read-out: IC50
# [12] = HEK 293 cells expressing TRHR-2, read-out: IC50 in competition with 3H-TRH as tracer
# [13] = nanomolar concentrations of TRH
# [14] = GH4C1 cells, three independent experiments
molecule,measurement,setting,value
"3H-thyrotropin releasing hormone (tritium-labelled TRH, Peninsula Laboratories) (peptide)",BMAX,[1],577 fmol/mg
same,Kd,[1],5.32 nM
same,BMAX,[2],535 fmol/mg
same,Kd,[2],6.17 nM
same,Bmax (fmol/mg proteins),[3],430
same,Kd,[3],2.5 nM
"NC(=O)[C@@H]1CCCN1C(=O)[C@H](Cc1cnc[nH]1)NC(=O)[C@@H]1CCC(=O)N1 [TRH, pyroglutamic acid-histidine-proline-amide]",IC50,TRHR-2 [4]; [11],8.39 ± 2.31 nM
same,IC50,TRHR-2 [4]; [12],8.3 nM
same,need of extracellular calcium for the transient rise in [Ca++]i,TRHR-2 [5],did not require the presence of extracellular calcium
same,change of intracellular calcium concentration,TRHR-2 [5]; [13],marked transient increase in the intracellular calcium concentration
same,time to peak of [Ca++]i,TRHR-2 [5]; [13],about 1 second
same,time until baseline [Ca++]i was attained,TRHR-2 [5]; [13],about 1 minute
same,analgesia relative to morphine,[6],twice as great
same,IC50,[7]; [14],5.33 ± 2.81 nM
Cn1cnc(C[C@H](NC(=O)[C@@H]2CCC(=O)N2)C(=O)N2CCC[C@H]2C(N)=O)c1 [pGlu-3-methyl-His-Pro-amide],IC50,TRHR-2 [4]; [12],2.2 nM
same,IC50,[7]; [14],0.43 ± 0.27 nM
NC(=O)[C@@H]1CCCN1C(=O)[C@H](CCC(=O)O)NC(=O)[C@@H]1CCC(=O)N1 [pGlu-Glu-Pro-amide] ([pGlu]-Glu-Pro-NH2),IC50,TRHR-2 [4]; [11],> 10000 nM
same,IC50,TRHR-2 [4]; [12],> 10000 nM
same,IC50,[7]; [14],> 10000 nM
O=C(O)CNC(=O)[C@@H]1CCCN1C(=O)[C@H](Cc1c[nH]cn1)NC(=O)[C@@H]1CCC(=O)N1 [pGlu-His-Pro-Gly] ([pGlu]HPG-OH; C-terminus assumed),IC50,TRHR-2 [4]; [11],641 ± 75.2 nM
same,IC50,TRHR-2 [4]; [12],640 nM
same,Ki,TRHR-2 [4]; read-out: Ki value to the TRHR-2 receptor,640 nM
same,binding to GH4C1 cells,[7],does not show any binding
same,IC50,[7]; [14],> 10000 nM
"Thyrotropin-releasing hormone (TRH), pGlu-His-Pro-amide, unlabelled (peptide)",IC50,[8],8.39 nM
^3H-thyrotropin releasing hormone [^3H-TRH],Kd,"TRHR-2 [4]; 293S/TRH-R clonal cell line, three independent experiments, read-out: Kd",6.17 ± 1.51 nM
same,Kd,"TRHR-2 [4]; HEK 293 cells expressing TRHR-2, saturation binding, read-out: estimated Kd for 3H-TRH",2.5 nM
same,Kd,[7]; [14],5.32 ± 1.63 nM
pGlu-3-methyl-His-Pro-amide (peptide),IC50,[8],2.2 nM
[pGlu]HPG (TRH-related peptide with a modified C-terminus) [pGlu-His-Pro-Gly],Ki,[9],640 nM
same,IC50,[10],641 nM
